Test results from US20220110902A1, “Methods of treating amyloid-beta peptide diseases” (Ecole Polytechnique Federale de Lausanne, priority 2016, published 2022).

Key:
old mice = experiment: Myriocin treatment of aged mice: muscle function and amyloid deposits; assay type: in vivo, mouse; settings: 0.4 mg/kg intra peritoneal injection for 8 weeks
From the text: FIG. 14A is a graph showing that inhibition of ceramide synthesis resolves Aβ proteotoxic stress in human cells. […] (FIG. 14C) Myriocin, administered as described in FIG. 14B, improves grip strength, exercise capacity (distance run), balance (latency square in beamwalk), and movement coordination (rotarod latency) in old mice. (FIG. 14D) Myriocin treatment reduces amyloid deposits, as shown by immunodetection with Thioflavin S (ThS), in the muscle tissues of old mice.

SH-SY5Y(APPSwe) cells = experiment: Western-blot and transcript analysis in SH-SY5Y(APPSwe) cells; assay type: cell-based, human; settings: NR 1 mM
Experimental: Human: Total RNA was extracted using guanidine-isothiocyanate lysis (PureLink, Ambion, Waltham, Mass.) from cortex samples, and RNA integrity and concentration was verified using Bioanalysis (Agilent, Santa Clara, Calif.). Samples were randomized based on diagnostic group and assayed in triplicate on a real-time PCR cycler (ABI 7500, Applied Biosystems, Foster City) in 96-well optical plates. qPCR was performed using Taqman hydrolysis probe primer sets (Applied Biosystems) specific for the following human transcripts: HSPA9, HSPD1, YMEIL1, DNM1L, BECN1, SQSTM1, PARK2, COX5A, CYC1. A primer set specific for human GAPDH was used as a control housekeeping transcript. For the APPSwe-expressing SH-SY5Y cell line, total RNA was extracted […] using TriPure RNA isolation reagent, and expression of selected transcripts was analyzed using the LightCycler480 system (Roche) and LightCycler® 480 SYBR Green I Master reagent (Roche). The GAPDH gene was used as housekeeping reference. The ddCT method was employed to determine relative levels of each amplicon. […] The SH-SY5Y neuroblastoma cell line expressing the APP Swedish K670N/M671L double mutation (APPSwe) was a kind gift of Prof. Cedazo-Minguez (Karolinska Institute, Sweden). Cells were grown in DMEM/F-12, supplemented with 10% fetal bovine serum (FBS, Gibco), GlutaMAX (100×, Gibco) and penicillin/streptomycin (1×, Gibco). Cells were selected in 4 μg/mL Geneticin® Selective Antibiotic (G418 Sulfate, Sigma) and grown for three generations before experiments with cells plated and passaged at 4×10^3 cells/ml and 60% confluence, respectively. Cells were cultured at 37° C. under a 5% CO2 atmosphere and tested for mycoplasma using Mycoprobe (#CUL001B, R&D systems) following the manufacturer's instructions. Cells were treated with 10 μg/mL dox, NR 1 or 3 mM, ISRIB 0.5 μM (Sigma), as indicated for 24 hours before cell harvesting or fixation. For the immunostaining, cells were fixed with 1× Formal-Fixx (Thermo Scientific) for 15 min. […]

old C57BL/6J mice = experiment: NR treatment of aged C57BL/6J mice: muscle amyloid, Oxphos proteins, MSR; assay type: in vivo, mouse
Experimental: Young (1 month old) and aged (20-24 months old) C57BL/6JRj mice were purchased from Janvier Labs. APP/PSEN1 mice (Tg(APPswe,PSEN1dE9)85Dbo/Mmjax) were purchased from JAX. C57BL/6JR mice were fed with pellets containing vehicle or NR (400 mg/kg/day) for 6-8 weeks, while APP/PSEN1 mice were fed NR pellets for 10 weeks, starting at the age of 4 months. The pellets were prepared by mixing powdered chow diet (20165, Harlan Laboratories) with water or with NR dissolved in water. Pellets were dried under a laminar flow hood for 48 hours. Mice were housed by groups of 2 to 5 animals per cage and randomized to 7-8 animals per experimental group according to their body weight. No blinding was used during the experiment procedures. Mouse: Total RNA was extracted from tissues using TriPure RNA isolation reagent (Roche) according to the product manual. Expression of selected genes was analyzed using the LightCycler480 system (Roche) and LightCycler® 480 SYBR Green I Master reagent (Roche). The beta-2-Microglobulin B2m gene was used as housekeeping reference. Mouse: Frozen cortex tissue samples were lysed by mechanical homogenization with RIPA buffer containing protease and phosphatase inhibitors, and analyzed by SDS-PAGE and western blot. Subsequently, the concentration of extracted protein was determined by using the Bio-Rad Protein Assay. Proteins were detected using the following antibodies: HSP60 (Enzo Life Science), CLPP (Sigma), anti-GAPDH (14C10) (Cell Signaling), LONP1 (Sigma), PINK1 (Novus Biologicals), LC3 A/B (Cell Signaling), SDHB (Oxphos cocktail, Abcam), MTCO1 (Abcam), Ubiquitin (Enzo), P62 (BD Transduction Laboratories), Phopsho P62 (Cell Signaling), VDAC (Abcam), β-Amyloid, 17-24 (4G8) (BioLegend). In addition to the housekeeping proteins, loading was monitored by Ponceau Red to ensure a homogeneous loading. Antibody detection reactions for all the immunoblot experiments were developed by enhanced chemiluminescence (Advansta) and imaged using the c300 imaging system (Azure Biosystems). Pixel intensity was quantified by using ImageJ software. […]

SMILES | balance (latency square in beamwalk) (old mice; mice 18 months or older) | exercise capacity (distance run) (old mice; mice 18 months or older) | grip strength (old mice; mice 18 months or older) | movement coordination (rotarod latency) (old mice; mice 18 months or older) | amyloid deposits in muscle tissues, Thioflavin S (ThS) (old mice; old mice) | MSR transcript levels (SH-SY5Y(APPSwe) cells; 24 h, dox 10 μg/mL) | oxidative phosphorylation (OXPHOS) protein levels (SH-SY5Y(APPSwe) cells; Western-blot) | SDHB and MTCO1 protein levels in muscle (old C57BL/6J mice; aged mice, NR 400 mg/kg/day for 6-8 weeks) | A11- and 4G8 positive amyloid-like deposits in TA and forelimbs muscle (old C57BL/6J mice; old mice, NR 400 mg/kg/day in pellets for 6-8 weeks) | expression of MSR signature genes in muscle (old C57BL/6J mice; quadriceps, NR 400 mg/kg/day for 6-8 weeks)
CCCCCCC(=O)CCCCCC/C=C/C[C@@H](O)[C@H](O)[C@@](N)(CO)C(=O)O [Myriocin, (E,2S,3R,4R)-2-amino-3,4-dihydroxy-2-(hydroxymethyl)-14-oxoicos-6-enoic acid] | improves | improves | improves | improves | reduces | – | – | – | – | –
NC(=O)c1ccc[n+]([C@@H]2O[C@H](CO)[C@@H](O)[C@H]2O)c1 [NR, Nicotinamide Riboside triflate] | – | – | – | – | – | increased | increases | partially restoring | marked reduction | increasing
